According to the supplement of paper PMC10307832:

Legend:
Test in all cases: relative viability (nuclei count vs DMSO), 5 days (fraction); higher = more cells survive
[1] = compound: Cc1cnc(CNC(=O)c2c(=O)c3ccc(N4CCCN(C)CC4)nc3n3c2sc2ccccc23)cn1 [CX-5461] + Nc1nc2[nH]cc(CCc3ccc(C(=O)N[C@@H](CCC(=O)O)C(=O)O)cc3)c2c(=O)[nH]1 [Pemetrexed] (partner 0.2 µM)
In short: (§1)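 After 5 days of treatment, lung cancer cells in 1536-well plates were fixed and stained in a single step (final 0.05% Triton X-100, 1% formaldehyde, 1 ug/ml Hoechst) and their nuclei counted on 4× images. Treatment had been applied by pin tool the day after seeding as one drug alone or as a fixed anchor-drug dose with five library-drug doses (not always all listed) in √10 steps. Relative viability is the nuclei count of treated wells divided by that of vehicle wells, and values are medians of duplicate plates.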

[2] = compound: O=C(Nc1cc(C(F)(F)F)cc(C(F)(F)F)c1)c1cc(Cl)ccc1O [IMD-0354] + N=C(N)NC(=N)NCCc1ccccc1 [Phenformin] (partner 250 µM)
In short: as §1

[3] = compound: Cc1cnc(CNC(=O)c2c(=O)c3ccc(N4CCCN(C)CC4)nc3n3c2sc2ccccc23)cn1 [CX-5461] + Cc1cc(Nc2cc(N3CCN(C)CC3)nc(Sc3ccc(NC(=O)C4CC4)cc3)n2)n[nH]1 [Tozasertib] (partner 0.1 µM)
In short: as §1

[4] = compound: Cc1cnc(CNC(=O)c2c(=O)c3ccc(N4CCCN(C)CC4)nc3n3c2sc2ccccc23)cn1 [CX-5461] + NC(=O)Nc1cc(-c2cccc(F)c2)sc1C(=O)N[C@H]1CCCNC1 [AZD7762] (partner 0.2 µM)
In short: as §1

Cell Line | relative viability ([1]; first compound 0.01 µM) | relative viability ([1]; first compound 0.03162 µM) | relative viability ([1]; first compound 0.1 µM) | relative viability ([1]; first compound 0.3162 µM) | relative viability ([1]; first compound 1 µM) | relative viability ([2]; first compound 0.04 µM) | relative viability ([2]; first compound 0.1265 µM) | relative viability ([2]; first compound 0.4 µM) | relative viability ([2]; first compound 1.265 µM) | relative viability ([2]; first compound 4 µM) | relative viability ([3]; first compound 0.01 µM) | relative viability ([3]; first compound 0.03162 µM) | relative viability ([3]; first compound 0.1 µM) | relative viability ([3]; first compound 0.3162 µM) | relative viability ([3]; first compound 1 µM) | relative viability ([4]; first compound 0.01 µM) | relative viability ([4]; first compound 0.03162 µM) | relative viability ([4]; first compound 0.1 µM) | relative viability ([4]; first compound 0.3162 µM) | relative viability ([4]; first compound 1 µM)
NCI-H1563 | 0.81 | 0.747 | 0.908 | 0.687 | 0.651 | 0.688 | 0.622 | 0.53 | 0.329 | 0.37 | – | – | – | – | – | – | – | – | – | –
NCI-H1623 | – | – | – | – | – | 0.565 | 0.621 | 0.459 | 0.364 | 0.385 | 0.465 | 0.406 | 0.44 | 0.463 | 0.372 | – | – | – | – | –
NCI-H1648 | 0.631 | 0.847 | 0.686 | 0.832 | 0.494 | – | – | – | – | – | – | 0.654 | 0.607 | 0.397 | 0.514 | 0.647 | 0.785 | 0.655 | 0.771 | 0.592
NCI-H1650 | 0.377 | 0.477 | 0.336 | 0.35 | 0.241 | 0.46 | 0.396 | 0.304 | 0.174 | 0.209 | 0.398 | 0.389 | 0.261 | 0.357 | 0.239 | – | – | – | – | –
NCI-H1703 | – | – | – | – | – | – | – | – | – | – | – | – | – | – | – | – | 0.11 | 0.104 | – | 0.107
NCI-H1792 | 0.897 | 0.929 | 0.964 | 1.02 | 0.296 | 0.175 | 0.225 | 0.226 | 0.167 | 0.139 | – | – | – | – | – | 0.838 | 0.677 | 0.5 | 0.667 | 0.0872
NCI-H2009 | 1.01 | 1.07 | 0.964 | 1.01 | 0.826 | 0.502 | 0.324 | 0.228 | 0.137 | 0.15 | 0.714 | 0.776 | 0.53 | 0.713 | 0.548 | – | – | – | – | –
NCI-H2023 | 0.218 | 0.246 | – | 0.19 | 0.111 | 0.446 | 0.409 | 0.223 | 0.109 | 0.147 | 0.306 | 0.325 | 0.237 | 0.283 | 0.0913 | – | – | – | – | –
NCI-H2228 | 0.355 | 0.369 | 0.312 | 0.305 | 0.182 | 0.372 | 0.224 | 0.233 | 0.084 | 0.165 | 0.245 | 0.213 | 0.224 | 0.261 | 0.0867 | – | – | – | – | –
SK-LU-1 | 1.06 | 1.12 | 0.852 | 0.965 | 0.651 | 0.713 | 0.413 | 0.303 | 0.193 | 0.187 | 0.33 | 0.339 | 0.247 | – | 0.189 | – | – | – | – | –
SK-MES-1 | 0.95 | 0.988 | 0.888 | 0.955 | 0.546 | 0.747 | 0.583 | 0.422 | 0.356 | 0.241 | 1 | 0.977 | 0.728 | 0.815 | 0.294 | – | – | – | – | –
SW 1573 | 0.88 | 0.845 | 0.153 | 0.692 | 0.203 | 0.397 | 0.265 | 0.18 | 0.0898 | 0.103 | 0.183 | 0.161 | 0.147 | 0.172 | 0.166 | – | – | – | – | –
